The source of these data is US20160176867A1, “MODIFIED BET-PROTEIN-INHIBITING DIHYDROQUINOXALINONES AND DIHYDROPYRIDOPYRAZINONES” (BAYER PHARMA AKTIENGESELLSCHAFT, priority 2013, published 2016).

The IC50 is the midpoint of a concentration-inhibition curve. Higher therefore signals lower potency.

Assay [1] concerns the target T1, BRD4 bromo domain 1 [BRD4(1)] (Homo sapiens, UniProt O60885).
T1 construct: N-terminally His6-tagged BRD4(1) (amino acids 67-152); made in house; host or cells: E. coli
The assay is described as follows: BRD4/acetylated peptide H4 binding assay (TR-FRET), BRD4 bromo domain 1. The note with it: inhibition of BRD4(1)/Ac-H4 peptide interaction. In short, it runs like this: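 TR-FRET (665/620 nm ratio) measuring displacement of biotinylated tetra-acetylated H4 peptide from His6-BRD4(1) (aa 67-152, E. coli; typically 10 nM) at pH 7.5. Compound (11 concentrations, 0.1 nM–20 μM, duplicates) was preincubated 10 min at 22°C, then 1 h at 22°C and ≥3 h at 4°C; IC50 from 4-parameter fit normalized to DMSO and no-BRD4 controls.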
In general terms: TR-FRET usually uses a lanthanide donor and a delayed reading to cut background.

The next assay has as its system MOLP-8 cells. The assay is described as follows: Cell proliferation assay (alamarBlue), MOLP-8. The note with it: Homo sapiens; MOLP-8 (multiple myeloma), 120 hours. The class given is cell-based. On the procedure: In accordance with the invention, the ability of the substances to inhibit cell proliferation was determined. Cell viability was determined by means of the alamarBlue® reagent (Invitrogen) in a Victor X3 Multilabel Reader (Perkin Elmer). The excitation wavelength was 530 nm and the emission wavelength […].
The MOLP-8 cells (DSMZ, ACC 569) were sown at a concentration of 4000 cells/well in 100 μl of growth medium (RPMI1640, 20% FCS) on 96-well microtitre plates.
After overnight incubation at 37° C., the fluorescence values were determined (CI values). Then the plates were treated with various substance dilutions (1E-5 M, 3E-6 M, 1E-6 M, 3E-7 M, 1E-7 M, 3E-8 M, 1E-8 M) and incubated at 37° C. over 96 hours (MOLM-13, B16F10, CHL-1 cells) or 120 hours (MOLP-8 cells). Subsequently, the fluorescence values were determined (CO values). For the data analysis, the CI values were subtracted from the CO values and the results were compared between cells which had been treated with various dilutions of the substance or only with buffer solution. The IC50 values (substance concentration needed for 50% inhibition of cell proliferation) were calculated therefrom.
For orientation: Resazurin is reduced to fluorescent resorufin, in cell work by metabolically active cells.

With `CC1C(=O)N(C)c2ccc(Nc3cccc(C(=O)NC4CCN(C)CC4)c3)nc2N1c1ccccc1` (racemic) [Example 104, 3-[(1,3-dimethyl-2-oxo-4-phenyl-1,2,3.4-tetrahydropyrido[2,3-b]pyrazin-6-yl)amino]-A-(1-methylpiperidin-4-yl)benzamide], the IC50 is 956 nM in assay [1] and 826 nM with MOLP-8 cells.

In the case of `C[C@@H]1C(=O)N(C)c2ccc(Nc3cccc(C(=O)N4CCN(C)CC4)c3)nc2N1C1CCCC1` [Example 1, (3R)-4-Cyclopentyl-1,3-dimethyl-6-({3-[(4-methylpiperazin-1-yl)carbonyl]phenyl}amino)-3,4-dihydropyrido[2,3-b]pyrazin-2(1H)-one], the IC50 in assay [1] was 67 nM; in the assay on MOLP-8 cells, 337 nM.

`C[C@@H]1C(=O)N(C)c2ccc(Nc3cccc(C(=O)NC4CCN(C)CC4)c3)nc2N1C1CCCC1` [Example 2, 3-{[(3R)-4-Cyclopentyl-1,3-dimethyl-2-oxo-1,2,3,4-tetrahydropyrido[2,3-b]pyrazin-6-yl]amino}-N-(1-methylpiperidin-4-yl)benzamide]: the figures for the IC50 (in assay [1]; in the assay with MOLP-8 cells) were 94 nM and 114 nM, respectively.

In the case of `C[C@@H]1C(=O)N(C)c2ccc(Nc3cccc(C(=O)NC4CN(C)C4)c3)nc2N1C1CCCC1` [Example 3, 3-{[(3R)-4-Cyclopentyl-1,3-dimethyl-2-oxo-1,2,3,4-tetrahydropyrido[2,3-b]pyrazin-6-yl]amino}-N-(1-methylazetidin-3-yl)benzamide], the IC50 was 91 nM in assay [1] and 187 nM in the assay on MOLP-8 cells.

Turning to `C[C@@H]1C(=O)N(C)c2ccc(Nc3cccc(C(=O)NCCN(C)C)c3)nc2N1C1CCCC1` [Example 4, 3-{[(3R)-4-Cyclopentyl-1,3-dimethyl-2-oxo-1,2,3,4-tetrahydropyrido[2,3-b]pyrazin-6-yl]amino}-N-[2-(dimethylamino)ethyl]benzamide], the IC50 in assay [1] came out at 144 nM; with MOLP-8 cells, 249 nM.

Turning to `C[C@@H]1C(=O)N(C)c2ccc(Nc3cccc(C(=O)N[C@H]4CC[C@H](N5CCN(CC6CC6)CC5)CC4)c3)nc2N1C1CCCC1` [Example 5, 3-{[(3R)-4-Cyclopentyl-1,3-dimethyl-2-oxo-1,2,3,4-tetrahydropyrido[2,3-b]pyrazin-6-yl]amino}-N-{trans-4-[4-(cyclopropylmethyl)piperazin-1-yl]cyclohexyl}benzamide], the IC50 is 99 nM in assay [1] and 136 nM with MOLP-8 cells.

For `C[C@@H]1C(=O)N(C)c2ccc(Nc3cccc(S(=O)(=O)N(C)C)c3)nc2N1C1CCOCC1` [Example 6, 3-{[(3R)-1,3-Dimethyl-2-oxo-4-(tetrahydro-2H-pyran-4-yl)-1,2,3,4-tetrahydropyrido[2,3-b]pyrazin-6-yl]amino}-N,N-dimethylbenzenesulphonamide], the IC50 in assay [1] worked out at 27 nM; in the assay with MOLP-8 cells it was 37 nM.

In turn, `C[C@@H]1C(=O)N(C)c2ccc(Nc3cccc(S(=O)(=O)N(C)C)c3)cc2N1C1CCOCC1` [Example 7, 3-{[(3R)-1,3-Dimethyl-2-oxo-4-(tetrahydro-2H-pyran-4-yl)-1,2,3,4-tetrahydroguinoxalin-6-yl]amino}-N,N-dimethylbenzenesulphonamide] gave an IC50 in assay [1] of 46 nM.

`C[C@@H]1C(=O)N(C)c2ccc(Nc3cccc(S(=O)(=O)N4CCOCC4)c3)cc2N1C1CCOCC1` [Example 8, (3R)-1,3-Dimethyl-6-{[3-(morpholin-4-ylsulphonyl)phenyl]amino}-4-(tetrahydro-2H-pyran-4-yl)-3,4-dihydroquinoxalin-2(1H)-one]: in assay [1], the IC50 stood at 79 nM.

For `C[C@@H]1C(=O)N(C)c2ccc(Nc3cccc(S(=O)(=O)N4CCOCC4)c3)nc2N1C1CCOCC1` [Example 9, (3R)-1,3-Dimethyl-6-{[3-(morpholin-4-ylsulphonyl)phenyl]amino}-4-(tetrahydro-2H-pyran-4-yl)-3,4-dihydropyrido[2,3-b]pyrazin-2(1H)-one], the IC50 in assay [1] was determined as 28 nM; in the assay with MOLP-8 cells it was 40 nM.

As to `COc1ccc(CN2c3cc(Nc4cccc(S(=O)(=O)N(C)C)c4)ccc3N(C)C(=O)[C@H]2C)cc1` [Example 10, 3-{[(3R)-4-(4-Methoxybenzyl)-1,3-dimethyl-2-oxo-1,2,3,4-tetrahydroquinoxalin-6-yl]amino}-N,N-dimethylbenzenesulphonamide], the IC50 in assay [1] stood at 159 nM; in the assay on MOLP-8 cells, 82 nM.

Consider `C[C@@H]1C(=O)N(C)c2ccc(Nc3cccc(S(=O)(=O)N4CCN(C)CC4)c3)nc2N1C1CCOCC1` [Example 12, (3R)-1,3-Dimethyl-6-({3-[(4-methylpiperazin-1-yl)sulphonyl]phenyl}amino)-4-(tetrahydro-2H-pyran-4-yl)-3,4-dihydropyrido[2,3-b]pyrazin-2(1H)-one], for which the IC50 in assay [1] was found to be 56 nM; in the assay with MOLP-8 cells, 126 nM.

Turning to `C[C@@H]1C(=O)N(C)c2ccc(Nc3cccc(C(=O)NC4CCN(C)CC4)c3)nc2N1C1CCOCC1` [Example 13, 3-{[(3R)-1,3-Dimethyl-2-oxo-4-(tetrahydro-2H-pyran-4-yl)-1,2,3,4-tetrahydropyrido[2,3-b]pyrazin-6-yl]amino}-N-(1-methylpiperidin-4-yl)benzamide], the figures for the IC50 (in assay [1]; with MOLP-8 cells) were 322 nM and 306 nM, respectively.

As for `C[C@@H]1C(=O)N(C)c2ccc(Nc3cccc(C(=O)N[C@H]4CC[C@H](N5CCN(CC6CC6)CC5)CC4)c3)nc2N1C1CCOCC1` [Example 14, N-{trans-4-[4-(Cyclopropylmethyl)piperazin-1-yl]cyclohexyl}-3-{[(3R)-1,3-dimethyl-2-oxo-4-(tetrahydro-2H-pyran-4-yl)-1,2,3,4-tetrahydropyrido[2,3-b]pyrazin-6-yl]amino}benzamide], the IC50 came out at 144 nM in assay [1] and 240 nM with MOLP-8 cells.

For the compound `C[C@@H]1C(=O)N(C)c2ccc(Nc3cccc(C(=O)N4CCN(C)CC4)c3)nc2N1C1CCOCC1` [Example 15, (3R)-1,3-Dimethyl-6-({3-[(4-methylpiperazin-1-yl)carbonyl]phenyl}amino)-4-(tetrahydro-2H-pyran-4-yl)-3,4-dihydropyrido[2,3-b]pyrazin-2(1H)-one], the IC50 in assay [1] was 108 nM; in the assay with MOLP-8 cells, 313 nM.

For the compound `C[C@@H]1C(=O)N(C)c2ccc(Nc3cccc(S(=O)(=O)NC4CCN(C)CC4)c3)nc2N1C1CCOCC1` [Example 20, 3-{[(3R)-1,3-Dimethyl-2-oxo-4-(tetrahydro-2H-pyran-4-yl)-1,2,3,4-tetrahydropyrido[2,3-b]pyrazin-6-yl]amino}-N-(1-methylpiperidin-4-yl)benzenesulphonamide], the IC50 in assay [1] amounted to 58 nM; in the assay on MOLP-8 cells, 190 nM.

Regarding `C[C@@H]1C(=O)N(C)c2ccc(Nc3cccc(S(=O)(=O)NCCN(C)C)c3)nc2N1C1CCOCC1` [Example 21], the 50% inhibitory concentration (IC50) in assay [1] was determined as 48 nM; in the assay with MOLP-8 cells, 175 nM.

In the case of `CC(C)N1c2nc(Nc3cccc(S(=O)(=O)N[C@H]4CC[C@H](N5CCN(CC6CC6)CC5)CC4)c3)ccc2N(C)C(=O)[C@H]1C` [Example 34, N-{trans-4-[4-(cyclopropylmethyl)piperazin-1-yl]cyclohexyl}-3-{[(3R)-4-isopropyl-1,3-dimethyl-2-oxo-1,2,3,4-tetrahydropyrido[2,3-b]pyrazin-6-yl]amino}-benzenesulphonamide], the IC50 in assay [1] turned out to be 23 nM; in the assay on MOLP-8 cells, 20 nM.

For the compound `C[C@@H]1C(=O)N(C)c2ccc(Nc3cccc(S(=O)(=O)N[C@H]4CC[C@H](N5CCN(CC6CC6)CC5)CC4)c3)nc2N1C1CCOCC1` [Example 35, N-{trans-4-[4-(cyclopropylmethyl)-piperazin-1-yl]cyclohexyl}-3-{[(3R)-1,3-dimethyl-2-oxo-4-(tetrahydro-2H-pyran-4-yl)-1,2,3,4-tetrahydropyrido[2,3-b]pyrazin-6-yl]amino}-benzenesulphonamide], the IC50 in assay [1] is 26 nM; with MOLP-8 cells, 23 nM.

For `CC(C)N1c2nc(Nc3cccc(S(=O)(=O)N4CCN(C)CC4)c3)ccc2N(C)C(=O)[C@H]1C` [Example 43, (3R)-4-isopropyl-1,3-dimethyl-6-({3-[(4-methylpiperazin-1-yl)sulphonyl]phenyl}-amino)-3,4-dihydropyrido-[2,3-b]pyrazin-2(1H)-one], the IC50 was 49 nM in assay [1] and 144 nM with MOLP-8 cells.

`CC(C)N1c2nc(Nc3cccc(S(=O)(=O)NC4CCN(C)CC4)c3)ccc2N(C)C(=O)[C@H]1C` [Example 51, 3-{[(3R)-4-isopropyl-1,3-dimethyl-2-oxo-1,2,3,4-tetrahydropyrido[2,3-b]pyrazin-6-yl]amino}-N-(1-methylpiperidin-4-yl)benzenesulphonamide]: the IC50 in assay [1] is 77 nM; in the assay with MOLP-8 cells, 58 nM.

For `CC(C)N1c2nc(Nc3cccc(S(=O)(=O)NCCN(C)C)c3)ccc2N(C)C(=O)[C@H]1C` [Example 55, N-[2-(dimethylamino)-ethyl]-3-{[(3R)-4-isopropyl-1,3-dimethyl-2-oxo-1,2,3,4-tetrahydro-pyrido[2,3-b]pyrazin-6-yl]amino}benzene-sulphonamide], the IC50 in assay [1] was 112 nM; in the assay on MOLP-8 cells it was 48 nM.
